Assay results as given in US20210196671A1, “COMPOSITIONS COMPRISING 3'-O-METHYL-4'-O-SULFATE EPICATECHIN AND THERAPEUTIC USES OF SUCH COMPOSITIONS” (SOCIÉTÉ DES PRODUITS NESTLÉ S.A., priority 2016, published 2021).

Target: T1, h-TRPA1 (Homo sapiens, UniProt O75762)
T1 construct: expressed in transfected cells; host or cells: CHO cells
Experiment: activation of CHO cells expressing h-TRPA1, calcium imaging
Assay type: cell-based
Settings: concentration (max) tested 1 mM
Method: Several epicatechin metabolites were tested in vitro to determine if any of these compounds are an agonist of the cation channel of TRPA1. Specifically, the activation of CHO cells expressing h-TRPA1 was tested according to the calcium imaging method described in Riera et al. (Riera, C. E., Vogel, H., Simon, S. A., Damak, S., & le Coutre, J. Sensory attributes of complex tasting divalent salts are mediated by TRPM5 and TRPV1 channels. J. Neurosci. 29, 2654-2662 (2009)).

T1 sequence (O75762 whole entry): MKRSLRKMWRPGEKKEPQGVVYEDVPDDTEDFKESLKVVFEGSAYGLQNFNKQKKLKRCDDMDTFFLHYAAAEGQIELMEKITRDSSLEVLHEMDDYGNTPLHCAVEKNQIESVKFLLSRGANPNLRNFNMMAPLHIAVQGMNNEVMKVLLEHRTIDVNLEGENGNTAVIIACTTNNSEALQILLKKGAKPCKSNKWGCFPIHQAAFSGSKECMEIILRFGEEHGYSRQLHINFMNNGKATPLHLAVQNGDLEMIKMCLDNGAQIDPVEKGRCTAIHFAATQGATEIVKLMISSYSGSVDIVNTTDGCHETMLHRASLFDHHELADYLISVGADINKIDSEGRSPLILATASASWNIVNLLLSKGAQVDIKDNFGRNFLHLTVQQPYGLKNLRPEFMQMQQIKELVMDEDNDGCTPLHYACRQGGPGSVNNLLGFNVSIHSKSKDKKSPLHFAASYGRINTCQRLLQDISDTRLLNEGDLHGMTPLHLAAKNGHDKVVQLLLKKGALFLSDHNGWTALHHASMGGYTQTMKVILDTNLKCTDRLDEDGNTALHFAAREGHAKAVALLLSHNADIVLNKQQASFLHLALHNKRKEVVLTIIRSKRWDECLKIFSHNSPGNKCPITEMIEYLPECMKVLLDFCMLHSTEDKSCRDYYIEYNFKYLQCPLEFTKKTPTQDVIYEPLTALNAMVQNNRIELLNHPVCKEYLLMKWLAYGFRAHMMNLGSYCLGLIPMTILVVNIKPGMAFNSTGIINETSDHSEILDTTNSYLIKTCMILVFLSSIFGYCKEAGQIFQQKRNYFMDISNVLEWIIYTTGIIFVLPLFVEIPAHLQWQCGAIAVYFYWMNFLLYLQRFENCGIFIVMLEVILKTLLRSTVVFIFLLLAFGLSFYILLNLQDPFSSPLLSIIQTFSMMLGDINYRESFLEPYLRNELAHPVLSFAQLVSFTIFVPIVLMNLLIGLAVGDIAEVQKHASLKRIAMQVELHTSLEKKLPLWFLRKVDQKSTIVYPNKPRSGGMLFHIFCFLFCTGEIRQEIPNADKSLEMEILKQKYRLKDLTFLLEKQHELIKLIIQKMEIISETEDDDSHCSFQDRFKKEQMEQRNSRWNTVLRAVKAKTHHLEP

Row | Activity vs hTRPA1 | Compound
1 | Active | COc1cc([C@H]2Oc3cc(O)cc(O)c3C[C@H]2O)ccc1OS(=O)(=O)O [3′-O-methyl-4′-O-sulfate-EC, 3′-O-methyl-4′-O-sulfate epicatechin]

Same assay, conditions: concentration (max) tested 3 mM

Row | Compound | Activity vs hTRPA1
2 | COc1ccc(C2CC(=O)c3c(O)cc(O)cc3O2)cc1O[C@@H]1O[C@H](C(=O)O)[C@@H](O)[C@H](O)[C@H]1O (stereo partly drawn) [Hesperetin-3-O-Glucuronide] | Inactive
3 | Hesperetin-4-O-Glucuronide | Inactive
4 | Hesperetin-7-3-O-Glucuronide | Inactive

Same assay, conditions: concentration (max) tested 100 mM

Row | Compound | Activity vs hTRPA1
5 | COc1cc([C@H]2Oc3cc(O)cc(O)c3C[C@H]2O)ccc1O [3′-O-methyl-EC] | Inactive
6 | COc1ccc([C@H]2Oc3cc(O)cc(O)c3C[C@H]2O)cc1O [4′-O-methyl-EC] | Inactive

The remaining lines, values ahead:

Row | Activity vs hTRPA1 | Compound
7 | Inactive | COc1cc([C@H]2Oc3cc(OS(=O)(=O)O)cc(O)c3C[C@H]2O)ccc1O [3′-O-methyl-7-O-sulfate-EC]
8 | Inactive | O=S(=O)(O)Oc1cc([C@H]2Oc3cc(O)cc(O)c3C[C@H]2O)ccc1O [3′-O-sulfate-EC]
9 | Inactive | O=S(=O)(O)Oc1ccc([C@H]2Oc3cc(O)cc(O)c3C[C@H]2O)cc1O [4′-O-sulfate-EC]
